Test results as given in patent US8183387B2, “Phenylpyrazole derivatives” (Taisho Pharmaceutical Co., Ltd, priority 2007, dated 2012).
pIC50: −log10 of the molar value.

Each compound was assayed against human H3 receptor (Homo sapiens, UniProt Q9Y5N1) (assay: H3 receptor binding test (R(−)-α-methyl[3H]histamine)). Conditions: inhibition of R(−)-α-methyl[3H]histamine (2 nM) binding, membrane of human H3 receptor-expressing CHO-K1 cells.
Chain of human H3 receptor (Q9Y5N1 whole entry): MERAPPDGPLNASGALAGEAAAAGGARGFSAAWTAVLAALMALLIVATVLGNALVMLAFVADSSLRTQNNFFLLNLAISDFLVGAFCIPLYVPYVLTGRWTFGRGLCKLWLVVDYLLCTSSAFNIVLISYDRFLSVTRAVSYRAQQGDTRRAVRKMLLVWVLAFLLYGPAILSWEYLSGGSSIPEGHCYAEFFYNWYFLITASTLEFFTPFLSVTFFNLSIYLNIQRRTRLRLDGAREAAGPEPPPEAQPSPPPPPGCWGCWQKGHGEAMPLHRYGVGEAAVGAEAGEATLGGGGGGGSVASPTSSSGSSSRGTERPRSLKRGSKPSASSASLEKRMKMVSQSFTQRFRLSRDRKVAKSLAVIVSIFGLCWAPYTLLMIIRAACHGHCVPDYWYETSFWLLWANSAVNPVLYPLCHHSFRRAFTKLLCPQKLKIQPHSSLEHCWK
Set-up: purchased Euroscreen ES-392-M; host or cells: CHO-K1
Procedure: A membrane preparation of human H3 receptor-expressing CHO-K1 cells (Euroscreen, ES-392-M, 15 μg protein/200 μl), R(−)-α-methyl[^3H]histamine (Amersham, TRK-1017, specific activity: 1.74 TBq/mmol, 2 nM) and a test drug were reacted at room temperature for 1 hour. After completion of the reaction, the reaction mixture was subjected to suction filtration through a 0.3% polyethyleneimine-treated glass filter (GF/C). The glass filter was washed five times with 50 mM Tris-HCl washing solution (pH 7.4) containing 5 mM EDTA. After washing, the glass filter was dried and a scintillator was added thereto, followed by measurement of radioactivity on the filter using a liquid scintillation counter.
A fixed concentration (2 nM) of R(−)-α-methyl[^3H]histamine was reacted under the above conditions with each test drug at various concentrations to obtain an inhibition curve.
Work on `CCOC(=O)c1cnn(-c2ccc(OCCCN3CCC[C@H]3C)cc2)c1` [Example 1, 1-(4-{3-[(2R)-2-methylpyrrolidin-1-yl]propoxy}phenyl)-1H-pyrazole-4-carboxylic acid ethyl ester] yielded a pIC50 of 7.62.
Work on `C[C@@H]1CCCN1CCCOc1ccc(-n2cc(C(N)=O)cn2)cc1` [Example 2, 1-(4-{3-[(2R)-2-methylpyrrolidin-1-yl]propoxy}phenyl)-1H-pyrazole-4-carboxamide] yielded a pIC50 of 8.19.
With `C[C@@H]1CCCN1CCCOc1ccc(-n2cc(C#N)cn2)cc1` [Example 3, 1-(4-{3-[(2R)-2-methylpyrrolidin-1-yl]propoxy}phenyl)-1H-pyrazole-4-carbonitrile] the pIC50 was 8.34.
Compound `C[C@H]1CCCN1CCCOc1ccc(-n2cc(C(N)=O)cn2)cc1` [Example 4, 1-(4-{3-[(2S)-2-methylpyrrolidin-1-yl]propoxy}phenyl)-1H-pyrazole-4-carboxamide] has a pIC50 of 7.48.
For `C[C@H]1CCCN1CCCOc1ccc(-n2cc(C#N)cn2)cc1` [Example 5, 1-(4-{3-[(2S)-2-methylpyrrolidin-1-yl]propoxy}phenyl)-1H-pyrazole-4-carbonitrile], the pIC50 was 7.97.
Work on `O=C(c1cnn(-c2ccc(OCCCN3CCCC3)cc2)c1)N1CCOCC1` [Example 8, 4-({1-[4-(3-pyrrolidin-1-ylpropoxy)phenyl]-1H-pyrazol-4-yl}carbonyl)morpholine] yielded a pIC50 of 7.62.
For `O=C(c1cnn(-c2ccc(OCCCN3CCCCC3)cc2)c1)N1CCOCC1` [Example 9, 4-({1-[4-(3-piperidin-1-ylpropoxy)phenyl]-1H-pyrazol-4-yl}carbonyl)morpholine], the pIC50 was 8.07.
`CC1(C)CCCN1CCCOc1ccc(-n2cc(C(=O)N3CCOCC3)cn2)cc1` [Example 10, 4-[(1-{4-[3-(2,2-dimethylpyrrolidin-1-yl)propoxy]phenyl}-1H-pyrazol-4-yl)carbonyl]morpholine] showed a pIC50 of 7.31.
`CC1CCCN1CCCOc1ccc(-n2cc(C(=O)NC(C)(C)C)cn2)cc1` (centres unmarked) [Example 11, N-tert-butyl-1-{4-[3-(2-methylpyrrolidin-1-yl)propoxy]phenyl}-1H-pyrazole-4-carboxamide] showed a pIC50 of 8.74.
Work on `CC1CCC(C)N1CCCOc1ccc(-n2cc(C(=O)NC(C)(C)C)cn2)cc1` (centres unmarked) [Example 12, N-tert-butyl-1-{4-[3-(2,5-dimethylpyrrolidin-1-yl)propoxy]phenyl}-1H-pyrazole-4-carboxamide] yielded a pIC50 of 7.71.
With `CC(C)(C)NC(=O)c1cnn(-c2ccc(OCCCN3CCCC3)cc2)c1` [Example 13, N-tert-butyl-1-[4-(3-pyrrolidin-1-ylpropoxy)phenyl]-1H-pyrazole-4-carboxamide] the pIC50 was 8.21.
In the case of `CCN(CC)CCCOc1ccc(-n2cc(C(=O)NC(C)(C)C)cn2)cc1` [Example 14, N-tert-butyl-1-{4-[3-(diethylamino)propoxy]phenyl}-1H-pyrazole-4-carboxamide], the pIC50 was 7.87.
In the case of `CC1CCCN1CCCOc1ccc(-n2cc(C(=O)Nc3ccc(F)cc3)cn2)cc1` (centres unmarked) [Example 15, N-(4-fluorophenyl)-1-{4-[3-(2-methylpyrrolidin-1-yl)propoxy]phenyl}-1H-pyrazole-4-carboxamide], the pIC50 was 8.74.
`O=C(Nc1ccc(F)cc1)c1cnn(-c2ccc(OCCCN3CCCC3)cc2)c1` [Example 16, N-(4-fluorophenyl)-1-[4-(3-pyrrolidin-1-ylpropoxy)phenyl]-1H-pyrazole-4-carboxamide] was tested, and the pIC50 was 8.23.
Work on `Cc1ccc(NC(=O)c2cnn(-c3ccc(OCCCN4CCCC4C)cc3)c2)cc1` (centres unmarked) [Example 17, N-(4-methylphenyl)-1-{4-[3-(2-methylpyrrolidin-1-yl)propoxy]phenyl}-1H-pyrazole-4-carboxamide] yielded a pIC50 of 8.41.
With `CC1CCCN1CCCOc1ccc(-n2cc(C(=O)NCc3ccc(F)cc3)cn2)cc1` (centres unmarked) [Example 18, 1-{4-[3-(2-methylpyrrolidin-1-yl)-propoxy]-phenyl}-1H-pyrazole-4-carboxylic acid 4-fluorobenzylamide] the pIC50 was 8.52.
With `CC1CCCN1CCCOc1ccc(-n2cc(C(=O)N(C)C)cn2)cc1` (centres unmarked) [Example 19, 1-{4-[3-(2-methylpyrrolidin-1-yl)-propoxy]-phenyl}-1H-pyrazole-4-carboxylic acid dimethylamide] the pIC50 was 8.29.
With `C[C@@H]1CCCN1CCCOc1ccc(-n2cc(C(=O)N(CCO)CCO)cn2)cc1` [Example 20, 1-(4-{3-[(2R)-2-methylpyrrolidin-1-yl]propoxy}phenyl)-1H-pyrazole-4-carboxylic acid bis-(2-hydroxyethyl)-amide] the pIC50 was 8.16.
For `CC1CCCN1CCCOc1ccc(-n2cc(C(=O)N3CCC3)cn2)cc1` (centres unmarked) [Example 21, azetidin-1-yl-(1-{4-[3-(2-methylpyrrolidin-1-yl)propoxy]phenyl}-1H-pyrazol-4-yl)methanone], the pIC50 was 8.24.
With `C[C@@H]1CCCN1CCCOc1ccc(-n2cc(C(=O)N3CCC(F)(F)C3)cn2)cc1` [Example 22, 4-[(3,3-difluoropyrrolidin-1-yl)carbonyl]-1-(4-{3-[(2R)-2-methylpyrrolidin-1-yl]propoxy}phenyl)-1H-pyrazole] the pIC50 was 8.57.
For `C[C@@H]1CCCN1CCCOc1ccc(-n2cc(C(=O)c3ccc(F)cc3)cn2)cc1` [Example 23, (4-fluorophenyl)[1-(4-{3-[(2R)-2-methylpyrrolidin-1-yl]propoxy}phenyl)-1H-pyrazol-4-yl]methanone], the pIC50 was 8.66.
`C[C@@H]1CCCN1CCCOc1ccc(-n2cc(C(=O)c3ccccc3)cn2)cc1` [Example 24, [1-(4-{3-[(2R)-2-methylpyrrolidin-1-yl]propoxy}phenyl)-1H-pyrazol-4-yl](phenyl)methanone] gave a pIC50 of 8.48.
`CC1CCCN1CCCOc1ccc(-n2cc(C(=O)c3ccccn3)cn2)cc1` (centres unmarked) [Example 25, (1-{4-[3-(2-methylpyrrolidin-1-yl)propoxy]phenyl}-1H-pyrazol-4-yl)(pyridin-2-yl)methanone] gave a pIC50 of 8.46.
For `C[C@@H]1CCCN1CCCOc1ccc(-n2cc(C(=O)c3ccncc3)cn2)cc1` [Example 26, [1-(4-{3-[(2R)-2-methylpyrrolidin-1-yl]propoxy}phenyl)-1H-pyrazol-4-yl](pyridin-4-yl)methanone], the pIC50 was 8.59.
`CC(=O)c1cnn(-c2ccc(OCCCN3CCC[C@H]3C)cc2)c1` [Example 27, 1-[1-(4-{3-[(2R)-2-methylpyrrolidin-1-yl]propoxy}phenyl)-1H-pyrazol-4-yl]ethanone] gave a pIC50 of 8.80.
Work on `C[C@@H]1CCCN1CCCOc1ccc(-n2cc([N+](=O)[O-])cn2)cc1` [Example 28, 1-(4-{3-[(2R)-2-methylpyrrolidin-1-yl]propoxy}phenyl)-4-nitro-1H-pyrazole] yielded a pIC50 of 8.51.
With `C[C@H]1CCCN1CCCOc1ccc(-n2cc(N3CCCC3=O)cn2)cc1` [Example 31, 1-[1-(4-{3-[(2S)-2-methylpyrrolidin-1-yl]propoxy}phenyl)-1H-pyrazol-4-yl]pyrrolidine-2-one] the pIC50 was 8.29.
`O=C1CCCN1c1cnn(-c2ccc(OCCCN3CCCC3)cc2)c1` [Example 32, 1-{1-[4-(3-pyrrolidin-1-ylpropoxy)phenyl]-1H-pyrazol-4-yl}pyrrolidine-2-one] was tested, and the pIC50 was 8.08.
For `CC1CCCN1CCCOc1ccc(-n2cc(N3CCOC3=O)cn2)cc1` (centres unmarked) [Example 34, 3-(1-{4-[3-(2-methylpyrrolidin-1-yl)propoxy]phenyl}-1H-pyrazol-4-yl)-1,3-oxazolidin-2-one], the pIC50 was 8.68.
`CC1CCCN1CCCOc1ccc(-n2cc(N3CCCCC3=O)cn2)cc1` (centres unmarked) [Example 36, 1-(1-{4-[3-(2-methylpyrrolidin-1-yl)propoxy]phenyl}-1H-pyrazol-4-yl)piperidin-2-one] showed a pIC50 of 8.40.
Work on `CC(=O)Nc1cnn(-c2ccc(OCCCN3CCC[C@H]3C)cc2)c1` [Example 37, N-[1-(4-{3-[(2R)-2-methylpyrrolidin-1-yl]propoxy}phenyl)-1H-pyrazol-4-yl]acetamide] yielded a pIC50 of 8.68.
Work on `CC(=O)N(C)c1cnn(-c2ccc(OCCCN3CCC[C@H]3C)cc2)c1` [Example 38, N-methyl-N-[1-(4-{3-[(2R)-2-methylpyrrolidin-1-yl]propoxy}phenyl)-1H-pyrazol-4-yl]acetamide] yielded a pIC50 of 9.05.
Compound `CCN(C(C)=O)c1cnn(-c2ccc(OCCCN3CCCC3C)cc2)c1` (centres unmarked) [Example 39, N-ethyl-N-(1-{4-[3-(2-methylpyrrolidin-1-yl)propoxy]phenyl}-1H-pyrazol-4-yl)acetamide] has a pIC50 of 8.46.
For `CC1CCCN1CCCOc1ccc(-n2cc(NC(=O)c3ccc(C#N)cc3)cn2)cc1` (centres unmarked) [Example 40, 4-cyano-N-(1-{4-[3-(2-methylpyrrolidin-1-yl)propoxy]phenyl}-1H-pyrazol-4-yl)benzamide], the pIC50 was 8.36.
For `COc1ccc(C(=O)Nc2cnn(-c3ccc(OCCCN4CCCC4C)cc3)c2)cc1` (centres unmarked) [Example 41, 4-methoxy-N-(1-{4-[3-(2-methylpyrrolidin-1-yl)propoxy]phenyl}-1H-pyrazol-4-yl)benzamide], the pIC50 was 8.68.
`C[C@@H]1CCCN1CCCOc1ccc(-n2cc(NC(=O)c3ccc(O)cc3)cn2)cc1` [Example 42, 4-hydroxy-N-[1-(4-{3-[(2R)-2-methylpyrrolidin-1-yl]propoxy}phenyl)-1H-pyrazol-4-yl]benzamide] was tested, and the pIC50 was 8.77.
For `C[C@@H]1CCCN1CCCOc1ccc(-n2cc(NC(=O)c3cccnc3)cn2)cc1` [Example 43, N-[1-(4-{3-[(2R)-2-methylpyrrolidin-1-yl]propoxy}phenyl)-1H-pyrazol-4-yl]pyridine-3-carboxamide], the pIC50 was 9.00.
In the case of `C[C@@H]1CCCN1CCCOc1ccc(-n2cc(NC(=O)c3ccncc3)cn2)cc1` [Example 44, N-[1-(4-{3-[(2R)-2-methylpyrrolidin-1-yl]propoxy}phenyl)-1H-pyrazol-4-yl]pyridine-4-carboxamide], the pIC50 was 9.10.
